One experiment deals with T1, human recombinant IL-17A (Homo sapiens, UniProt Q16552).
T1 construct: purchased R&D Systems 7955-IL/CF
T1 sequence (Q16552 24-155): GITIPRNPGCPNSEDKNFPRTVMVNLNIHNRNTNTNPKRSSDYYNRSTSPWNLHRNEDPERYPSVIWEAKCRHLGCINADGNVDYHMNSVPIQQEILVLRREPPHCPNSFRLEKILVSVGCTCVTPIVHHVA
The experiment in a line: IL-17A AlphaLISA assay (block binding of IL-17A to its receptor IL-17RA). Particulars: compounds pre-incubated with the IL-17A for 30 min (indicated by * in Table A); read-out: AlphaLISA pIC50 (converted). The method, then:
The ability of the compounds to block binding of IL-17A to its receptor, IL-17RA, was analysed in a competition assay using AlphaLISA technology (Perkin Elmer). The assay is a bead based AlphaLISA where the IL-17RA is captured on the acceptor bead via an Fc tag and IL-17A is captured on the streptavidin donor bead via a biotinylated anti-IL17A antibody.
Assay buffer was prepared by adding 0.05% Tween-20 (v/v) and 0.1% BSA to Phosphate Buffered Saline (PBS). The assay was carried out in 384-well white low volume plates (Corning 4512). 10 µL of a 7.5 nM stock of human recombinant IL-17A (R&D Systems 7955-IL/CF) diluted in assay buffer was dispensed into the assay plate and compounds or DMSO vehicle control were added in a volume of 75 nL using a D300 dispenser (Hewlett Packard). The compounds were pre-incubated with the IL-17A for 24 h at room temperature (or for 30 min, where indicated by * in Table A below) prior to addition of 5 μL of a 5 nM stock of human recombinant IL-17RA/Fc chimera (R&D Systems 177-IR-100) diluted in assay buffer. The IL-17A was incubated with the receptor for a further 90 minutes at room temperature before addition of 5 μL of a mixture of anti-human Fc IgG acceptor beads (75 μg/mL, Perkin Elmer AL103C) and anti-IL-17A biotin conjugated antibody (5 nM, Enzo Life Sciences, ENZ-ABS278-0100) in assay buffer. After a further 30 min incubation at room temperature, 5 μL of streptavidin donor beads ([…], Perkin Elmer 6760002S) were added and the plate was incubated for 3 h in the dark.
The luminescence signal was measured using an Enspire plate reader (Perkin Elmer) with excitation at 680 nm and emission at 615 nm. Data were analysed using GraphPad Prism and fitted to a 4-parameter logistic equation. The IC50 values were calculated using the DMSO vehicle as the negative control and a high concentration (6 μM) of a reference IL-17A inhibitor as the positive control.
Activity of the Example compounds is reported as a PIC50 value in Table A.
Turning to `Cc1cnn(C)c1-c1ccc(NC(=O)[C@@H](NC(=O)c2cnnn2C)[C@H]2CC[C@H](C)CC2)nc1` [Example 167, N—((S)-2-((5-(1,4-dimethyl-1H-pyrazol-5-yl)pyridin-2-yl)amino)-1-((1r,4S)-4-methylcyclohexyl)-2-oxoethyl)-1-methyl-1H-1,2,3-triazole-5-carboxamide], the IC50 is 316 nM.
For `CCn1nccc1C(=O)N[C@H](C(=O)Nc1ccc(-c2c(C)noc2C)cn1)[C@H]1CC[C@H](C)CC1` [Example 109, N—((S)-2-((5-(3,5-Dimethylisoxazol-4-yl)pyridin-2-yl)amino)-1-((1r,4S)-4-methylcyclohexyl)-2-oxoethyl)-1-ethyl-1H-pyrazole-5-carboxamide], the IC50 is 100 nM.
Still for that read-out and setting: the result for `CCc1nocc1C(=O)N[C@H](C(=O)Nc1ccc(-c2c(C)noc2C)nc1)[C@H]1CC[C@H](C)CC1` [Example 203, N—((S)-2-((6-(3,5-dimethylisoxazol-4-yl)pyridin-3-yl)amino)-1-((1r,4S)-4-methylcyclohexyl)-2-oxoethyl)-3-ethylisoxazole-4-carboxamide] reads 79.4 nM; that for `CCn1nncc1C(=O)N[C@H](C(=O)Nc1ccc(-c2c(C)cnn2C)cn1)C1CCCCCC1` [Example 141, (S)—N-(1-Cycloheptyl-2-((5-(1,4-dimethyl-1H-pyrazol-5-yl)pyridin-2-yl)amino)-2-oxoethyl)-1-ethyl-1H-1,2,3-triazole-5-carboxamide], 158 nM; that for `Cc1noc(C)c1-c1ccc(NC(=O)[C@@H](NC(=O)c2ccnn2C(C)C)[C@H]2CC[C@H](C)CC2)nc1` [Example 110, N—((S)-2-((5-(3,5-dimethylisoxazol-4-yl)pyridin-2-yl)amino)-1-((1r,4S)-4-methylcyclohexyl)-2-oxoethyl)-1-isopropyl-1H-pyrazole-5-carboxamide], 79.4 nM.
`Cc1nocc1C(=O)N[C@H](C(=O)Nc1ccc(-c2c(C)noc2C)cn1)C1CCCCCC1` [Example 116, (S)—N-(1-Cycloheptyl-2-((5-(3,5-dimethylisoxazol-4-yl)pyridin-2-yl)amino)-2-oxoethyl)-3-methylisoxazole-4-carboxamide]: the IC50 is 63.1 nM.
On to `CCn1nccc1C(=O)N[C@H](C(=O)Nc1ccc(-c2c(CO)cnn2C)cn1)C1CCCCCC1` [Example 198, (S)—N-(1-cycloheptyl-2-((5-(4-(hydroxymethyl)-1-methyl-1H-pyrazol-5-yl)pyridin-2-yl)amino)-2-oxoethyl)-1-ethyl-1H-pyrazole-5-carboxamide], for which the IC50 was 200 nM.
The same measure, in the same setting: the result for `Cc1nonc1C(=O)N[C@H](C(=O)Nc1ccc(-c2c(C)noc2C)cn1)C1CCCCCC1` [Example 128, (S)—N-(1-Cycloheptyl-2-((5-(3,5-dimethylisoxazol-4-yl)pyridin-2-yl)amino)-2-oxoethyl)-4-methyl-1,2,5-oxadiazole-3-carboxamide] reads 251 nM; that for `Cc1cnn(C)c1-c1ccc(NC(=O)[C@@H](NC(=O)c2ccnn2C)C2CCCCCC2)nc1` [Example 132, (S)—N-(1-Cycloheptyl-2-((5-(1,4-dimethyl-1H-pyrazol-5-yl)pyridin-2-yl)amino)-2-oxoethyl)-1-methyl-1H-pyrazole-5-carboxamide], 79.4 nM.
Consider `Cc1cc(-c2ccc(NC(=O)[C@@H](NC(=O)c3ccnn3C)[C@H]3CC[C@H](C)CC3)nc2)c(C)cn1` [Example 153, N—((S)-2-((2′,5′-dimethyl-[3,4′-bipyridin]-6-yl)amino)-1-((1r,4S)-4-methylcyclohexyl)-2-oxoethyl)-1-methyl-1H-pyrazole-5-carboxamide], for which the IC50 was 398 nM.
As for `Cc1noc(C)c1-c1ccc(NC(=O)[C@@H](NC(=O)c2ccnn2C(C)C)C2CCCCCC2)nc1` [Example 123, (S)—N-(1-Cycloheptyl-2-((5-(3,5-dimethylisoxazol-4-yl)pyridin-2-yl)amino)-2-oxoethyl)-1-isopropyl-1H-pyrazole-5-carboxamide], the IC50 is 39.8 nM.
With `CCn1nccc1C(=O)N[C@H](C(=O)Nc1ccc(-c2c(Cl)cnn2C)cn1)[C@H]1CC[C@H](C)CC1` [Example 199, N—((S)-2-((5-(4-chloro-1-methyl-1H-pyrazol-5-yl)pyridin-2-yl)amino)-1-((1r,4S)-4-methylcyclohexyl)-2-oxoethyl)-1-ethyl-1H-pyrazole-5-carboxamide], the IC50 was 100 nM.
Regarding `CCc1nocc1C(=O)N[C@H](C(=O)Nc1ccc(-c2c(C)noc2C)nc1)C1CCCCCC1` [Example 171, (S)—N-(1-cycloheptyl-2-((6-(3,5-dimethylisoxazol-4-yl)pyridin-3-yl)amino)-2-oxoethyl)-3-ethylisoxazole-4-carboxamide], the IC50 is 79.4 nM.

Still in this experiment, the particulars now being: compounds pre-incubated with the IL-17A for 24 h at room temperature; read-out: AlphaLISA pIC50 (converted).
Consider `Cn1nccc1C(=O)N[C@H](C(=O)Nc1ccc(-c2cnc3ccccn23)cc1)C(c1ccccc1)c1ccccc1` [Example 39, (S)—N-(1-((4-(imidazo[1,2-a]pyridin-3-yl)phenyl)amino)-1-oxo-3,3-diphenylpropan-2-yl)-1-methyl-1H-pyrazole-5-carboxamide], for which the IC50 was 200 nM.
In the case of `CCn1nccc1C(=O)N[C@H](C(=O)Nc1ccc(-c2ccc(=O)n(C)c2C)cn1)[C@H]1CC[C@H](C)CC1` [Example 91, N—((S)-2-((1′,2′-Dimethyl-6′-oxo-1′,6′-dihydro-[3,3′-bipyridin]-6-yl)amino)-1-((1r,4S)-4-methylcyclohexyl)-2-oxoethyl)-1-ethyl-1H-pyrazole-5-carboxamide], the IC50 was 251 nM.
As for `Cn1nccc1C(=O)N[C@H](C(=O)Nc1ccc(C2CCOCC2)cc1)[C@H]1CC[C@H](C)CC1` [Example 93, 1-Methyl-N—((S)-1-((1r,4S)-4-methylcyclohexyl)-2-oxo-2-((4-(tetrahydro-2H-pyran-4-yl)phenyl)amino)ethyl)-1H-pyrazole-5-carboxamide], the IC50 was 50.1 nM.
Take `CCn1nccc1C(=O)N[C@H](C(=O)Nc1ccc(-c2ccc(=O)[nH]n2)c(F)c1)C(c1ccccc1)c1ccccc1` [Example 34, (S)-1-ethyl-N-(1-((3-fluoro-4-(6-oxo-1,6-dihydropyridazin-3-yl)phenyl)amino)-1-oxo-3,3-diphenylpropan-2-yl)-1H-pyrazole-5-carboxamide]: the IC50 is 200 nM.
Same read-out and setting: as for `COc1c[n+]([O-])ccc1-c1ccc(NC(=O)[C@@H](NC(=O)c2ccnn2C)C(c2ccccc2)c2ccccc2)cc1` [Example 25, (S)-3-methoxy-4-(4-(2-(1-methyl-1H-pyrazole-5-carboxamido)-3,3-diphenylpropanamido)phenyl)pyridine 1-oxide], the figure is 5.01 nM; as for `Cc1cc(=O)n(C)cc1-c1ccc(NC(=O)[C@@H](NC(=O)c2ccnn2C)C(c2ccccc2)c2ccccc2)cc1F` [Example 17, (S)—N-(1-((4-(1,4-dimethyl-6-oxo-1,6-dihydropyridin-3-yl)-3-fluorophenyl)amino)-1-oxo-3,3-diphenylpropan-2-yl)-1-methyl-1H-pyrazole-5-carboxamide], 15.8 nM.
Same read-out and setting: the result for `COc1cncc(F)c1-c1ccc(NC(=O)[C@@H](NC(=O)c2ccnn2C)C(c2ccccc2)c2ccccc2)cc1` [Example 10, (S)—N-(1-((4-(3-fluoro-5-methoxypyridin-4-yl)phenyl)amino)-1-oxo-3,3-diphenylpropan-2-yl)-1-methyl-1H-pyrazole-5-carboxamide] reads 7.94 nM.
Regarding `Cn1nccc1C(=O)N[C@H](C(=O)Nc1ccc(-c2cc[nH]c(=O)c2)cc1)[C@H]1CC[C@H](C)CC1` [Example 87, 1-Methyl-N—((S)-1-((1r,4S)-4-methylcyclohexyl)-2-oxo-2-((4-(2-oxo-1,2-dihydropyridin-4-yl)phenyl)amino)ethyl)-1H-pyrazole-5-carboxamide], the IC50 was 501 nM.
For `Cc1cnccc1-c1ccc(NC(=O)[C@@H](NC(=O)c2ccnn2C)C(c2ccccc2)c2ccccc2)cc1F` [Example 15, (S)—N-(1-((3-fluoro-4-(3-methylpyridin-4-yl)phenyl)amino)-1-oxo-3,3-diphenylpropan-2-yl)-1-methyl-1H-pyrazole-5-carboxamide], the IC50 was 50.1 nM.
Consider `Cc1nn(Cc2ccccc2)c(C)c1-c1ccc(NC(=O)[C@@H](NC(=O)c2ccnn2C)C(c2ccccc2)c2ccccc2)cc1` [Example 31, (S)—N-(1-((4-(1-benzyl-3,5-dimethyl-1H-pyrazol-4-yl)phenyl)amino)-1-oxo-3,3-diphenylpropan-2-yl)-1-methyl-1H-pyrazole-5-carboxamide], for which the IC50 is 631 nM.
